Consider seven compounds from patent publication US12157738B2, “Macrocyclic inhibitors of ALK, TRKA, TRKB, and ROS1” (DANA-FARBER CANCER INSTITUTE, INC., priority 2018, dated 2024).

pIC50: −log10 of the molar value.

One assay has as its system Parental WT Ba/F3 cells. Put plainly: Cell viability assay (CellTiter-Glo, 72 hr). In kind it is cell-based. The following applies: for pIC50: Mus musculus, BaF3, 72 hr. How it is done: (§1) Ba/F3 cell lines were cultured in RPMI-1640 media containing L-glutamine, supplemented with 10% fetal bovine serum (FBS) and 1% penicillin/streptomycin. Parental Ba/F3 cells were cultured with an additional 1 ng/mL recombinant mouse IL-3 (ProSpec). Mycoplasma testing was performed on a monthly basis and all lines were negative. Cell viability was evaluated using the CellTiter-Glo® Luminescent Cell Viability Assay (Promega) following the manufacturer's standards. 12-point dose titrations were tested in triplicate from 10000 nM to 0.056 nM over 72 hr. Anti-proliferative best fit IC50 values were calculated by Graphpad Prism 7 software.
The experimental protocol was as in Example 11.
In general terms: In ATP-based viability assays light output follows the ATP content of the culture.

The next assay concerns the target T1, CD74-NTRK1 Ba/F3 cells (Homo sapiens, UniProt P04629).
T1 construct: expressed in transfected cells; host or cells: Ba/F3; the other entry of the earlier key: CD74 (P04233, HLA class II histocompatibility antigen gamma chain)
Put plainly: Cell viability assay (CellTiter-Glo, 72 hr). In kind it is cell-based. The following applies: for pIC50: 72 hr. How it is done: (§2) Parental Ba/F3 cells were cultured with an additional 1 ng/mL recombinant mouse IL-3 (ProSpec). […] Cell viability was evaluated using the CellTiter-Glo® Luminescent Cell Viability Assay (Promega) following the manufacturer's standards. […] Anti-proliferative best fit IC50 values were calculated by Graphpad Prism 7 software.

Assay [1] concerns ALK wild type, ALK mutants, TRKA, TRKB, TRKC and ROS1. Put plainly: AMBIT profile, DiscoverX KINOMEscan Assay platform. Conditions: for Ambit profile potency and selectivity: Example 10, FIG. 7A and 7B. In kind it is binding. From the text: The AMBIT data were generated using DiscoverX KINOMEscan® Assay platform.
The experimental protocol was as in Example 9.

The next assay deals with T2, ALK L1196M (Homo sapiens, UniProt Q9UM73, L1196M).
T2 construct: purchased Invitrogen
Put plainly: Invitrogen Z'-lyte or LanthaScreen kinase IC50 assay. In kind it is biochemical. From the text:
(§3) The IC50 values were generated from Invitrogen™'s Z'-lytet™ or LanthaScreen™ assays.
Background: TR-FRET usually uses a lanthanide donor and a delayed reading to cut background.

The next assay has as its target T3, TRK1 (Homo sapiens, UniProt P04629).
T3 construct: purchased Invitrogen
Described as above. In kind it is biochemical.
Source text: as §3

In another assay the target is T4, ALK (Homo sapiens, UniProt Q9UM73).
T4 construct: similar enzymatic potency was observed against full length ALK and ALK mutants; purchased Invitrogen
The description is as above. In kind it is biochemical.
Source text: as §3

The next assay concerns the target T5, TRK3 (Homo sapiens, UniProt Q16288).
T5 construct: purchased Invitrogen
Described as above. In kind it is biochemical.
Source text: as §3

A further assay has as its target T6, ROS1 (Homo sapiens, UniProt P08922).
T6 construct: purchased Invitrogen
The description is as above. It counts as biochemical.
Source text: as §3

The target of another assay is T7, TRK2 (Homo sapiens, UniProt Q16620).
T7 construct: purchased Invitrogen
The assay is described as above. In kind it is biochemical.
Source text: as §3

In assay [2] the target is T8, Ba/F3 EML4-ALK C1156Y cells (Homo sapiens, UniProt Q9UM73, C1156Y).
T8 construct: expressed in transfected cells; host or cells: Ba/F3; the other entry of the earlier key: EML4 (Q9HC35, Echinoderm microtubule-associated protein-like 4)
Put plainly: Cell viability assay (CellTiter-Glo, 72 hr). In kind it is cell-based. How it is done: as §2

In assay [3] the target is T9, Ba/F3 EML4-ALK L1196M cells (Homo sapiens, UniProt Q9UM73, L1196M).
T9 construct: expressed in transfected cells; host or cells: Ba/F3; the other entry of the earlier key: EML4 (Q9HC35, Echinoderm microtubule-associated protein-like 4)
Put plainly: Cell viability assay (CellTiter-Glo, 72 hr). In kind it is cell-based. How it is done: as §2

Assay [4] has as its target T10, Ba/F3 EML4-ALK G1202R cells (Homo sapiens, UniProt Q9UM73, G1202R).
T10 construct: expressed in transfected cells; host or cells: Ba/F3; the other entry of the earlier key: EML4 (Q9HC35, Echinoderm microtubule-associated protein-like 4)
Put plainly: Cell viability assay (CellTiter-Glo, 72 hr). In kind it is cell-based. The procedure:
as §2

The target in the next assay is T11, Ba/F3 EML4-ALK cells (Homo sapiens, UniProt Q9UM73).
T11 construct: expressed in transfected cells; host or cells: Ba/F3; the other entry of the earlier key: EML4 (Q9HC35, Echinoderm microtubule-associated protein-like 4)
Put plainly: Cell viability assay (CellTiter-Glo, 72 hr). In kind it is cell-based. How it is done: as §2

Assay [5] deals with tel-TRK fusion Ba/F3 cell lines. Put plainly: IC50 in TEL-TRK Ba/F3 cells. It counts as cell-based. Conditions: all 3 tel-TRK fusion Ba/F3 cell lines; FIG. 5. From the text:
The IC50 values were generated using ACD/Labs GraphPad Prism (version 7).

Assay [6] deals with Ba/F3 cell lines expressing EML4-ALK and EML4-ALK with secondary mutations. Put plainly: Anti-proliferation assay in EML4-ALK Ba/F3 cell lines. It counts as cell-based. How it is done: as §1

T2 sequence (Q9UM73 19-1620 L1196M): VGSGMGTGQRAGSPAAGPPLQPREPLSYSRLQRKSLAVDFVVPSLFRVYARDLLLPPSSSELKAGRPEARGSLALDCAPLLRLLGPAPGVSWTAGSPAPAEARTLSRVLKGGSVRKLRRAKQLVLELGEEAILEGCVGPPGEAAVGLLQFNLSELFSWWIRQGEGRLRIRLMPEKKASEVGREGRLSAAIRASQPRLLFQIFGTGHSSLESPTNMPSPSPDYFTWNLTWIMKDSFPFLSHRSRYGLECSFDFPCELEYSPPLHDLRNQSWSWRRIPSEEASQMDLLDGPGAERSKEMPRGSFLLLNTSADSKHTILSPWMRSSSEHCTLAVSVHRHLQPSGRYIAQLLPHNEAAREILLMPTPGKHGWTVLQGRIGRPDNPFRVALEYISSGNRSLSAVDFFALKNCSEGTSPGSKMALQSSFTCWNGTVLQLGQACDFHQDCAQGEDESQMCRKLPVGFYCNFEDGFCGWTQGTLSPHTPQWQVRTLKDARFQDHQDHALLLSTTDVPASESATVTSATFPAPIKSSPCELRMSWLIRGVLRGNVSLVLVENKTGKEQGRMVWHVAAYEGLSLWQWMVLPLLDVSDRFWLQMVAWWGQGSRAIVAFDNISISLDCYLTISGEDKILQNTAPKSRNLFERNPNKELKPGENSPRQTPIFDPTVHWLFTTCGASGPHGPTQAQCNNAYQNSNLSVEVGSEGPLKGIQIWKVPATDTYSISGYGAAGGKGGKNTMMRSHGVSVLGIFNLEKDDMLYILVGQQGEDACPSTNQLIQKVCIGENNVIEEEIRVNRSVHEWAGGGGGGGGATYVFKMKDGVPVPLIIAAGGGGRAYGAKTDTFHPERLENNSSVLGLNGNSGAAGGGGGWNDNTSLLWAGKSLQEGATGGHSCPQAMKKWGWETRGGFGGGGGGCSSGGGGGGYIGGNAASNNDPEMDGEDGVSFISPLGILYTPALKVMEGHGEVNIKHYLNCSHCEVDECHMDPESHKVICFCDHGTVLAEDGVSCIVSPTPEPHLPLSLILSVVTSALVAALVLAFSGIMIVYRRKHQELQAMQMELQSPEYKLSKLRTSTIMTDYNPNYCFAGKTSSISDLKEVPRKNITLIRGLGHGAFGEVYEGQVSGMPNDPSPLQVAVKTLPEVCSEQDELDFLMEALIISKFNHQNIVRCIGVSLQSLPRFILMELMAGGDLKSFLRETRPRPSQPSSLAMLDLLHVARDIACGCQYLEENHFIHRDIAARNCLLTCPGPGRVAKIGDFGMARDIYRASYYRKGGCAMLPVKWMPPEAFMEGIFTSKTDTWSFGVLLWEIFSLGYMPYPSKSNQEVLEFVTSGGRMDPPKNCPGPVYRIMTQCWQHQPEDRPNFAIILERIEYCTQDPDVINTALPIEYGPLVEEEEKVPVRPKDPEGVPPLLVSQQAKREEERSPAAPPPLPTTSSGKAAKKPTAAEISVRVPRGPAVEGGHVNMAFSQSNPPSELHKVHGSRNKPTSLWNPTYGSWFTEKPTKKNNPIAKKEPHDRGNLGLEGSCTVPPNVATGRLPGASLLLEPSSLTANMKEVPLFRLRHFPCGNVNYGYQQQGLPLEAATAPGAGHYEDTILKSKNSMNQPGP
T3 sequence (P04629 33-796): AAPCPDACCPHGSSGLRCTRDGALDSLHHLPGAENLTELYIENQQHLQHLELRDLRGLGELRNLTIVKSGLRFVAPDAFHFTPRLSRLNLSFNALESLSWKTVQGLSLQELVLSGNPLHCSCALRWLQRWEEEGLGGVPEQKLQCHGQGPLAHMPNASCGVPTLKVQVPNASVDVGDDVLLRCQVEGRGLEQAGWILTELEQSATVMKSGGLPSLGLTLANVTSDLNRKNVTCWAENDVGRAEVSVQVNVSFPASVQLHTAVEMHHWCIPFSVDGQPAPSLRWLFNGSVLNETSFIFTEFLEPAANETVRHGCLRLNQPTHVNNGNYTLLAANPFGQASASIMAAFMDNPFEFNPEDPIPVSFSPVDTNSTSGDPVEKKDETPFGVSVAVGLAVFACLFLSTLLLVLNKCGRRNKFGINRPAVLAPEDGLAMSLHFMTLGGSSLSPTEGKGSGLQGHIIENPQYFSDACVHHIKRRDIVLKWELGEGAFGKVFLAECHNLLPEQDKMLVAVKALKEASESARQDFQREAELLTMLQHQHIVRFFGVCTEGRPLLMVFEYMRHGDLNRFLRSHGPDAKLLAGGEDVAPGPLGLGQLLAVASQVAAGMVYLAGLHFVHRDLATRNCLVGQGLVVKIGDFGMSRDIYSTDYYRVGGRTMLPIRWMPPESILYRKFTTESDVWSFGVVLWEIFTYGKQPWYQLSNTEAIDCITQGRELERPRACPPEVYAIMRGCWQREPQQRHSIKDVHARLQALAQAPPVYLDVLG
T7 sequence (Q16620 32-822): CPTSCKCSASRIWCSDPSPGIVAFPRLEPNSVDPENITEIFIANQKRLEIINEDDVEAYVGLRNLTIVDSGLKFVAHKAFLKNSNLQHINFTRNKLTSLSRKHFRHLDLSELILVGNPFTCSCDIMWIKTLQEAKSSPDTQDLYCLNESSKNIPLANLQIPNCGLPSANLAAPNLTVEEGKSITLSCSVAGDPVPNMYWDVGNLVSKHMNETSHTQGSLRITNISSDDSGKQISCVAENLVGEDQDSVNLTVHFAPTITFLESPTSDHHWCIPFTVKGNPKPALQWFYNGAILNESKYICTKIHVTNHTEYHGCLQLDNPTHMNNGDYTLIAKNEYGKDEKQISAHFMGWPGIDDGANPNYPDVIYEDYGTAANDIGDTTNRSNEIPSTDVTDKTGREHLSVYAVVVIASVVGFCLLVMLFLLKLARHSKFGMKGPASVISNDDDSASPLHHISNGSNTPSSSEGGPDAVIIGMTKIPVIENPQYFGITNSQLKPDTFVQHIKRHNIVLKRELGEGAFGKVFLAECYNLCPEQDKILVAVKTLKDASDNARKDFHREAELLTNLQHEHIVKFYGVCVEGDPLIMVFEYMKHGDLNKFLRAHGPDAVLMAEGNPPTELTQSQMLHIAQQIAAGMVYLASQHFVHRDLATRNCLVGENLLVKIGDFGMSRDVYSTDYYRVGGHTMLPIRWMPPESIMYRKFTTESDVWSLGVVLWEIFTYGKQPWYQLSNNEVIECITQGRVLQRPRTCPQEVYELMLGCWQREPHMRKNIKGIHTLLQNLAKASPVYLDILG
T5 sequence (Q16288 32-839): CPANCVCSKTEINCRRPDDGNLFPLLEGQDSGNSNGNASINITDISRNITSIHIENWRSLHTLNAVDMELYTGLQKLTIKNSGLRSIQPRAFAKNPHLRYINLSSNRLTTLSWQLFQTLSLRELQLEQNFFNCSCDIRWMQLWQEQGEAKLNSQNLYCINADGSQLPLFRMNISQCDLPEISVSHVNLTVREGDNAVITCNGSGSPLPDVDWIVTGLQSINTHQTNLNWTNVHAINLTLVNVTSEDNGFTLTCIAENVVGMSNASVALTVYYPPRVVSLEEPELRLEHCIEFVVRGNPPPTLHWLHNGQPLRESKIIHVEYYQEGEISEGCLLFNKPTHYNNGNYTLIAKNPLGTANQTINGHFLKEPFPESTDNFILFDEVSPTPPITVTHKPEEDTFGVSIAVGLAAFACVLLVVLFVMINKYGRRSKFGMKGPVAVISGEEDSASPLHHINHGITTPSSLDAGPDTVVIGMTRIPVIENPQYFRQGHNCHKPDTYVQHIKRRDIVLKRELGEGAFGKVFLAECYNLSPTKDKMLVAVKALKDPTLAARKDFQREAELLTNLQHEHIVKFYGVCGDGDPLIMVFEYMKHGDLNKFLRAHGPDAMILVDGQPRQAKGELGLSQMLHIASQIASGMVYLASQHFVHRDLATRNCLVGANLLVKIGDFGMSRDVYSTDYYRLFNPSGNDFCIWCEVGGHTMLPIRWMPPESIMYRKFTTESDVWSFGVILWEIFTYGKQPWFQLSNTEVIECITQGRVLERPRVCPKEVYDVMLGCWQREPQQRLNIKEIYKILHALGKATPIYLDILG
T1 sequence (P04629 510-796 limits assumed): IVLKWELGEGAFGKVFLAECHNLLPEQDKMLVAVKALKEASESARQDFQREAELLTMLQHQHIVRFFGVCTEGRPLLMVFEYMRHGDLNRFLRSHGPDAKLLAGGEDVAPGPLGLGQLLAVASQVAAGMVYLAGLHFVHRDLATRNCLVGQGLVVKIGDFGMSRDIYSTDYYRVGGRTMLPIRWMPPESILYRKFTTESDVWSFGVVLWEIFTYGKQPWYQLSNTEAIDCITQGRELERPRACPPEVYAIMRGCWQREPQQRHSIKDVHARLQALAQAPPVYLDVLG
T4 sequence (Q9UM73 19-1620): as the sequence (Q9UM73 19-1620 L1196M) above, with M1178L counted along it
T8 sequence (Q9UM73 1058-1620 C1156Y limits assumed): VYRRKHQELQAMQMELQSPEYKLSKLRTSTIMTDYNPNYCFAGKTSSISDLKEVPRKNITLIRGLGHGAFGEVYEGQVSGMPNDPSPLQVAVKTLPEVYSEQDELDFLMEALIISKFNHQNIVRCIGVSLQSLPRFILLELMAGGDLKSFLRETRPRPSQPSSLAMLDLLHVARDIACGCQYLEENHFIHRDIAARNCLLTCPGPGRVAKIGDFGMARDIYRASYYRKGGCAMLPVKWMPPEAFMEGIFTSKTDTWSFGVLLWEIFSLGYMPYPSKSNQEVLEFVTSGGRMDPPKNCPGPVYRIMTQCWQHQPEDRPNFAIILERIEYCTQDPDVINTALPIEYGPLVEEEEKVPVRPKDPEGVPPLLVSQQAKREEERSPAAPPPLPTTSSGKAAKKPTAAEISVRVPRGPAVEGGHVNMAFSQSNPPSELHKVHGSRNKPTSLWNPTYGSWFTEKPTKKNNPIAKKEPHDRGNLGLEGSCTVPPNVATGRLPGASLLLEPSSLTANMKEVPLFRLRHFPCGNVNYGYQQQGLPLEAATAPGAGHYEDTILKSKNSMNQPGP
T11 sequence (Q9UM73 1058-1620 limits assumed): as the sequence (Q9UM73 1058-1620 C1156Y limits assumed) above, with Y99C counted along it
T10 sequence (Q9UM73 1058-1620 G1202R limits assumed): as the sequence (Q9UM73 1058-1620 C1156Y limits assumed) above, with Y99C, G145R counted along it
T9 sequence (Q9UM73 1058-1620 L1196M limits assumed): as the sequence (Q9UM73 1058-1620 C1156Y limits assumed) above, with Y99C, L139M counted along it

Turning to `CN1CCN(c2ccc(C(=O)Nc3n[nH]c4ccc(Cc5cc(F)cc(F)c5)cc34)c(NC3CCOCC3)c2)CC1` [Entrectinib], in the assay with Parental WT Ba/F3 cells, the negative logarithm of the IC50 (pIC50) (as a rule, the IC50 on a negative log10 scale, so that one unit is a factor of ten) was 5.69 and the “non-specific activity in parental Ba/F3 cells, compared in words” value is given as “more active than compound I-1a”.

For `C[C@H]1Oc2cc(cnc2N)-c2c(nn(C)c2C#N)CN(C)C(=O)c2ccc(F)cc21` [Lorlatinib, reference compound], the negative-log IC50 (pIC50) in the assay with Parental WT Ba/F3 cells was 4.72; against CD74-NTRK1 Ba/F3 cells, 7.17.

As for `COc1c2c(nn1C)CN(C)C(=O)c1ccc(F)cc1[C@H]1CCCN1c1cc-2cnc1N` [Compound I-1b, (R)-26-amino-45-fluoro-15-methoxy-11,6-dimethyl-11H-6-aza-2(3,5)-pyridina-1(4,3)-pyrazola-3(1,2)-pyrrolidina-4(1,3)-benzenacycloheptaphan-5-one], the “Ambit profile potency and selectivity” value in assay [1] was “very potent and selective for ALK, TRKA, TRKB, and TRKC”. Moreover, the negative logarithm of the IC50 (pIC50) against ALK L1196M is 7.70; against TRK1 it was 8.40; against ALK, 8.05; against TRK3, 9.15; on ROS1 it was 9.05; against TRK2, 9.05.

Consider `CN1Cc2nn(C)c(C#N)c2-c2cnc(N)c(c2)N2CCC[C@@H]2c2cc(F)ccc2C1=O` [Compound I-1d, (R)-2^6-amino-4^5-fluoro-1,6-dimethyl-5-oxo-1^1H-6-aza-2(3,5)-pyridina-1(4,3)-pyrazola-3(1,2)-pyrrolidina-4(1,3)-benzenacycloheptaphane-15-carbonitrile], for which, in assay [1], the “Ambit profile potency and selectivity” value is “very potent and selective for ALK, TRKA, TRKB, and TRKC”. The pIC50 was 8.52 at ALK L1196M; 8.22 against TRK1; 8.15 at ALK; 8.70 against TRK3; 9.00 at ROS1; 8.30 against TRK2.

Consider `CN1Cc2nn(C)cc2-c2cnc(N)c(c2)N2CCC[C@@H]2c2cc(F)ccc2C1=O` [Compound I-1a, (R)-26-amino-45-fluoro-11,6-dimethyl-11H-6-aza-2(3,5)-pyridina-1(4,3)-pyrazola-3(1,2)-pyrrolidina-4(1,3)-benzenacycloheptaphan-5-one], for which the negative logarithm of the IC50 (pIC50) is 4.72 in the assay on Parental WT Ba/F3 cells; 6.82 in [2]; 9.88 against CD74-NTRK1 Ba/F3 cells; 6.84 in assay [3]; 5.91 in [4]; 7.63 on Ba/F3 EML4-ALK cells. The pIC50 on ALK L1196M is 8.22; against TRK1, 8.52; against ALK, 7.92; on TRK3, 9.15; on ROS1, 8.89; against TRK2, 9.30. The “non-specific activity in parental Ba/F3 cells, compared in words” value with Parental WT Ba/F3 cells is on record as “less non-specific activity than entrectinib”. Besides, the “Ambit profile selectivity (percent activity remaining)” value in [1] (Example 9, FIG. 6) was “quite selective toward ALK wild type, ALK mutants as well as TRKA, TRKB, TRKC and ROS1”. The “Ambit profile potency and selectivity” value in [1] is “very potent and selective for ALK, TRKA, TRKB, and TRKC”. Besides, the “activity relative to entrectinib in CD74-NTRK1 expressing Ba/F3 cells” value at CD74-NTRK1 Ba/F3 cells (in words) is “entrectinib like activity”. Besides, the “potency (IC50) relative to entrectinib in tel-TRK fusion Ba/F3 cell lines” value in assay [5] was “more potent than entrectinib”. For the same compound, the “anti-proliferative activity relative to lorlatinib” value in [6] (Example 11, FIG. 1) was “lower activity”. Besides, the “activity relative to lorlatinib and JH-XIII-157-2” value in assay [6] (Example 12, FIG. 2A-2D, Tables 2-5) is recorded as “lower activity”.

As for `Cn1cc2c(n1)CN(C1CC1)C(=O)c1ccc(F)cc1[C@H]1CCCN1c1cc-2cnc1N` [Compound I-1e, (R)-2^6-amino-6-cyclopropyl-4^5-fluoro-1^1-methyl-1^1H-6-aza-2(3,5)-pyridina-1(4,3)-pyrazola-3(1,2)-pyrrolidina-4(1,3)-benzenacycloheptaphan-5-one], the pIC50 at ALK L1196M is 8.22; against TRK1 it was 8.70; on ALK, 8.22; on TRK3 it was 9.15; against ROS1, 9.15; against TRK2 it was 9.15.

For the compound `Cc1c2c(nn1C)CN(C)C(=O)c1ccc(F)cc1[C@H]1CCCN1c1cc-2cnc1N` [Compound I-1c, (R)-2^6-amino-4^5-fluoro-1^1,1^5,6-trimethyl-1^1H-6-aza-2(3,5)-pyridina-1(4,3)-pyrazola-3(1,2)-pyrrolidina-4(1,3)-benzenacycloheptaphan-5-one], in assay [1], the “Ambit profile potency and selectivity” value was “very potent and selective for ALK, TRKA, TRKB, and TRKC”. In addition, the pIC50 is 8.52 at ALK L1196M; 9.00 at TRK1; 8.30 at ALK; 9.30 on TRK3; 9.22 at ROS1; greater than 9.30 on TRK2.
